In PubChem BioAssay AID2060510 (Molecular Pharmacology Branch, DTP, NCI, 2025):

Tested on: 439559-082-T-J2-PDC spheroids viability
Assay: Anticancer human tumor 439559-082-T-J2-PDC patient-derived colon adenocarcinoma cell line growth inhibition [GQUAD]
Conditions: for IC50: curve of first compound; for viability, T/C: stronger effect = lower value
Procedure, shortened: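 Multi-cell-type spheroids of tumor cells with HUVEC and mesenchymal stem cells, treated with drug combinations. Concentrations descend in half-log steps from near clinical Cmax, or from 10 microM where Cmax is unknown; viability read-out.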

[1] = second compound 0.0316 µM, first compound 0.0316 µM
[2] = second compound 0.0316 µM, first compound 0.1 µM
[3] = second compound 0.0316 µM, first compound 0.316 µM
[4] = second compound 0.0316 µM, first compound 1 µM
[5] = second compound 0.0316 µM, first compound 3.16 µM
[6] = second compound 0.0316 µM, first compound 10 µM
[7] = second compound 0.1 µM, first compound 0.0316 µM
[8] = second compound 0.1 µM, first compound 0.1 µM
[9] = second compound 0.1 µM, first compound 0.316 µM
[10] = second compound 0.1 µM, first compound 1 µM
[11] = second compound 0.1 µM, first compound 3.16 µM
[12] = second compound 0.1 µM, first compound 10 µM
[13] = second compound 0.316 µM, first compound 0.0316 µM
[14] = second compound 0.316 µM, first compound 0.1 µM
[15] = second compound 0.316 µM, first compound 0.316 µM
[16] = second compound 0.316 µM, first compound 1 µM
[17] = second compound 0.316 µM, first compound 3.16 µM
[18] = second compound 0.316 µM, first compound 10 µM
[19] = second compound 1 µM, first compound 0.0316 µM
[20] = second compound 1 µM, first compound 0.1 µM
[21] = second compound 1 µM, first compound 0.316 µM
[22] = second compound 1 µM, first compound 1 µM
[23] = second compound 1 µM, first compound 3.16 µM
[24] = second compound 1 µM, first compound 10 µM
[25] = second compound 3.16 µM, first compound 0.0316 µM
[26] = second compound 3.16 µM, first compound 0.1 µM
[27] = second compound 3.16 µM, first compound 0.316 µM
[28] = second compound 3.16 µM, first compound 1 µM
[29] = second compound 3.16 µM, first compound 3.16 µM
[30] = second compound 3.16 µM, first compound 10 µM
[31] = second compound 10 µM, first compound 0.0316 µM
[32] = second compound 10 µM, first compound 0.1 µM
[33] = second compound 10 µM, first compound 0.316 µM
[34] = second compound 10 µM, first compound 1 µM
[35] = second compound 10 µM, first compound 3.16 µM
[36] = second compound 10 µM, first compound 10 µM
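Further: spheroids exposed to the agents for 7 days before readout.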
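Wherever viability, T/C is given: percent of luminescence signal in DMSO vehicle wells taken as 100% viability.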

In the case of `C=CCn1c(=O)c2cnc(Nc3ccc(N4CCN(C)CC4)cc3)nc2n1-c1cccc(C(C)(C)O)n1` + Cc1cnc(CNC(=O)c2c(=O)c3ccc(N4CCCN(C)CC4)nc3n3c2sc2ccccc23)cn1, the IC50 (second compound 0.0316 µM) is reported as 2.61 µM, the IC50 (second compound 0.1 µM) is reported as 2.53 µM and the IC50 (second compound 0.316 µM) is reported as 1.74 µM. For the same compound, the IC50 (second compound 1 µM) was 1.4 µM, the IC50 (second compound 3.16 µM) was 1.28 µM and the IC50 (second compound 10 µM) was 1.08 µM. It also gave a viability, T/C [1] of 95.4%, a viability, T/C [2] of 93.7% and a viability, T/C [3] of 88.8%. It also gave a viability, T/C [4] of 83.7%, a viability, T/C [5] of 43.2% and a viability, T/C [6] of 25.4%. For the same compound, the viability, T/C [7] was 104%, the viability, T/C [8] was 83.6% and the viability, T/C [9] was 91.4%. For the same compound, the viability, T/C [10] was 76%, the viability, T/C [11] was 43.1% and the viability, T/C [12] was 22.2%. It also gave a viability, T/C [13] of 84.6%, a viability, T/C [14] of 87.5% and a viability, T/C [15] of 73.5%. The viability, T/C [16] was 66.3%, the viability, T/C [17] was 33.8% and the viability, T/C [18] was 24%. For the same compound, the viability, T/C [19] was 83.2%, the viability, T/C [20] was 87.9% and the viability, T/C [21] was 72.1%. For the same compound, the viability, T/C [22] was 61.8%, the viability, T/C [23] was 27.3% and the viability, T/C [24] was 20.2%. The viability, T/C [25] was 73.3%, the viability, T/C [26] was 63.6% and the viability, T/C [27] was 68.3%. The viability, T/C [28] was 56.8%, the viability, T/C [29] was 25.1% and the viability, T/C [30] was 18.5%. It also gave a viability, T/C [31] of 66.2%, a viability, T/C [32] of 53.9% and a viability, T/C [33] of 61.2%. The viability, T/C [34] was 51.1%, the viability, T/C [35] was 31.2% and the viability, T/C [36] was 13.8%.

`CC(C)(O)C1CCC(Nc2ccc3ncc(-c4cccc(C(F)(F)F)c4)n3n2)CC1` (centres undefined) + Cc1cnc(CNC(=O)c2c(=O)c3ccc(N4CCCN(C)CC4)nc3n3c2sc2ccccc23)cn1 showed an IC50 (second compound 0.0316 µM) of 1.68 µM, an IC50 (second compound 0.1 µM) of 1.76 µM and an IC50 (second compound 0.316 µM) of 1.46 µM. For the same compound, the IC50 (second compound 1 µM) was 1.18 µM, the IC50 (second compound 3.16 µM) was 1.02 µM and the IC50 (second compound 10 µM) was 0.418 µM. The viability, T/C [1] was 95.8%, the viability, T/C [2] was 96.9% and the viability, T/C [3] was 102%. For the same compound, the viability, T/C [4] was 77.2%, the viability, T/C [5] was 14.2% and the viability, T/C [6] was 19.1%. The viability, T/C [7] was 94.4%, the viability, T/C [8] was 91.4% and the viability, T/C [9] was 98.1%. It also gave a viability, T/C [10] of 78.8%, a viability, T/C [11] of 19.9% and a viability, T/C [12] of 9.57%. The viability, T/C [13] was 84.9%, the viability, T/C [14] was 86.8% and the viability, T/C [15] was 71.3%. The viability, T/C [16] was 67%, the viability, T/C [17] was 15.5% and the viability, T/C [18] was 14.1%. The viability, T/C [19] was 84.5%, the viability, T/C [20] was 72.5% and the viability, T/C [21] was 74.5%. The viability, T/C [22] was 56.2%, the viability, T/C [23] was 11.7% and the viability, T/C [24] was 12.7%. The viability, T/C [25] was 72.4%, the viability, T/C [26] was 72.3% and the viability, T/C [27] was 61%. It also gave a viability, T/C [28] of 51.2%, a viability, T/C [29] of 0.28% and a viability, T/C [30] of 0.21%. The viability, T/C [31] was 63.3%, the viability, T/C [32] was 56.9% and the viability, T/C [33] was 57.8%. It also gave a viability, T/C [34] of 25.3%, a viability, T/C [35] of 0.24% and a viability, T/C [36] of 0.26%.
